Data on three compounds can be found in patent US20040023994A1 (priority 2002, published 2004).

Entries after “also recorded” stand apart in the source; their conditions may differ.

One data set relates to ACHN cells. Kind of data set: MTT cytotoxicity assay. The format is cell-based, human. The note with it: for IC50: 72 h incubation, MTT. The protocol: (§1) Preliminary studies examining the in vitro cytotoxicity of cis-AVTP and trans-AVTG as compared to the parent drugs, were carried out using the 3-[4,5-dimethylthiazol-2-yl]-2,5-diphenyl tetrazolium bromide (MTT) cytotoxicity assay.

The subject of another data set is A-498 cells. Kind of data set: MTT cytotoxicity assay. In kind it is cell-based, human. As to conditions: for IC50: A-498, 72 h incubation, MTT. The method, then:
as §1

As for `O=C(O)/C=C\Sc1ncnc2[nH]cnc12` [PTA, cis-3-(9H-purin-6-ylthio)acrylic acid], the cytotoxicity result in the data set with ACHN cells (within the concentration range examined (up to 500 μM)) was “little cytotoxicity; also recorded: not cytotoxic”; in the data set on A-498 cells (A-498, within the concentration range examined (up to 500 μM)), “little cytotoxicity; also recorded: not cytotoxic”.
Usually IC50 stands for the midpoint of a concentration-inhibition curve. Higher therefore signals weaker potency in that assay. For the compound `Cn1cnc([N+](=O)[O-])c1Sc1ncnc2nc[nH]c12` [AZA, azathioprine], the IC50 in the data set on ACHN cells (Homo sapiens) worked out at 22.1 µM; in the data set on A-498 cells (Homo sapiens, A498), 50.2 ± 10.4 µM.
Turning to `CC(=O)C=Cc1ccccc1` [PBO, phenylbutenone], the values for the IC50 in the data set on ACHN cells and with A-498 cells were 62.3 ± 10.7 µM and 252 ± 149 µM, respectively.
